Data as given in patent publication US20250353891A1 (MEDIMMUNE LIMITED, priority 2022, published 2025).
Starred links: 1 amine or outer side, 2 acyl side, 3 side chain; linkers in the order of their positions; H or OH if unused. Non-standard residues stand in square brackets, D forms with d. Residues, ends and D or L forms follow the SMILES beside them. Groups on a side chain read outwards from the residue. *: point of attachment. C18 diacid = O=C(O)CCCCCCCCCCCCCCCCC(=O)*; γGlu = O=C(O)[C@H](CCC(=O)[*:2])N[*:1]; αMeF = C[C@](N)(Cc1ccccc1)C(=O)O; Aib = CC(C)(N)C(=O)O

Columns and labels:
recombinant Neprilysin = target: T1, recombinant Neprilysin (Homo sapiens, UniProt P08473); assay: Proteolytic resistance to neprilysin; type: in vitro ADME; settings: pH 8.3
T1 construct: purchased R&D Systems 1182-ZNC-010
Outline: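 Peptide stock (~250 μM) mixed 1:1 with neprilysin stock (100 μg/mL) in Tris/NaCl/NaHCO3 buffer, pH 8.3, at 37° C. Aliquots at 0, 30 min, 1, 2, 4, 24 h quenched in TFA/acetonitrile. Intact peptide estimated by RP-HPLC peak area at 210 nm.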

[1] = Mouse acute food intake study; type: in vivo; settings: male C57Bl/6 mice, s.c., dose 10 nmol/kg, cumulative food intake at 24 hr vs vehicle
Outline: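 Peptide or vehicle went subcutaneously (5 mL/kg) to 6-8 h-fasted male C57Bl/6 mice shortly before the dark phase, with groups balanced on body weight and 24-hour intake. Cumulative food consumption was derived from 48 h of automated BioDaq monitoring with free food and water access.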

T1 sequence (P08473 52-750 limits assumed): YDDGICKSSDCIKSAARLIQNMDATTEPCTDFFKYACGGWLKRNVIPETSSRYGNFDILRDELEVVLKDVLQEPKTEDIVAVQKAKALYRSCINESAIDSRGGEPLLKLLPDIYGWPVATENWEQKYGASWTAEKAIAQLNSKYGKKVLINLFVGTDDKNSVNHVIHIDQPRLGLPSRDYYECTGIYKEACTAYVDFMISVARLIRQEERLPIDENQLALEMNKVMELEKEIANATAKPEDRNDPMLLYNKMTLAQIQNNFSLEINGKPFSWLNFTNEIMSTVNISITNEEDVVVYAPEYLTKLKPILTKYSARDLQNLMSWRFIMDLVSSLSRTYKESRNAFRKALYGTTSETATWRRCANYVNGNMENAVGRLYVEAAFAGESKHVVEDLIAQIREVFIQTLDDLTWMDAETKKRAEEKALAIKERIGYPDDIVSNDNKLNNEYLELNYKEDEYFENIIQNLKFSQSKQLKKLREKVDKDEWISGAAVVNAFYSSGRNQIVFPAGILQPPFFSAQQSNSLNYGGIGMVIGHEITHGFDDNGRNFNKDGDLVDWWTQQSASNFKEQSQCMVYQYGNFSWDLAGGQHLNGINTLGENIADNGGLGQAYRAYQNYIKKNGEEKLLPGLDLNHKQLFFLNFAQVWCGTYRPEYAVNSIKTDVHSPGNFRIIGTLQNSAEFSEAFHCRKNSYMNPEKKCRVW

- remaining at 0.5 h (recombinant Neprilysin; isolated enzyme neprilysin): 100%
- remaining at 2 h (recombinant Neprilysin; isolated enzyme neprilysin): 100%
- remaining at 4 h (recombinant Neprilysin; isolated enzyme neprilysin): 97%
- remaining at 24 h (recombinant Neprilysin; isolated enzyme neprilysin): 84%
- % intact peptide over time (recombinant Neprilysin): 100%
Compound: CC[C@H](C)[C@H](NC(=O)[C@H](Cc1c[nH]c2ccccc12)NC(=O)[C@H](CCC(=O)O)NC(=O)[C@@H](NC(=O)[C@](C)(Cc1ccccc1)NC(=O)[C@H](CC(=O)O)NC(=O)[C@H](CCC(N)=O)NC(=O)[C@H](C)NC(=O)[C@H](C)NC(=O)[C@H](CCCCNC(=O)CC[C@H](NC(=O)CCCCCCCCCCCCCCCCC(=O)O)C(=O)O)NC(=O)[C@H](CO)NC(=O)[C@H](CC(=O)O)NC(=O)[C@H](CC(C)C)NC(=O)[C@](C)(Cc1ccccc1)NC(=O)[C@H](CCCCN)NC(=O)[C@H](CO)NC(=O)[C@@H](NC(=O)[C@H](CC(=O)O)NC(=O)[C@H](CO)NC(=O)[C@@H](NC(=O)[C@](C)(Cc1ccccc1)NC(=O)[C@H](CO)NC(=O)CNC(=O)[C@H](Cc1c[nH]cn1)NC(=O)C(C)(C)NC(=O)[C@@H](N)Cc1c[nH]cn1)[C@@H](C)O)C(C)C)C(C)C)C(=O)N[C@@H](C)C(=O)N[C@@H](CC(N)=O)C(=O)N[C@H](C(N)=O)[C@@H](C)O [Peptide 7] (H-H[Aib]HGS[αMeF]TSDVSK[αMeF]LDSK([γGlu-C18 diacid])AAQD[αMeF]VEWIANT-NH2; N-terminus assumed)
- 24 hr % Vehicle Food Intake [1]: 55.0%
